Results on three compounds are retold here after US20250057819A1, “DRUG COMBINATIONS FOR INHIBITING CORONAVIRUS REPLICATION” (priority 2021, published 2025).

Where a name gives a salt, the structure may show the parent alone. Read-outs that look alike come from different tables or passages of the source.

Test in all cases: microbe, parasite or virus in culture
Common to all, as to type: cell-based

The subject of experiment [1] is SARS-CoV-2 (Alpha). The settings on record: Huh7.5 cells, monotherapy.
Experiment [2] concerns SARS-CoV-2. The settings on record: read-out: SARS-CoV-2 (Vido) EC50.
Experiment [3] deals with SARS-CoV-2 (Beta). The settings on record: Huh7.5 cells, monotherapy.
[4] abbreviates: Severe acute respiratory syndrome coronavirus 2.
Setting [5] is: Severe acute respiratory syndrome coronavirus 2, Huh7.5.

As to `CC(C)C(=O)OC[C@H]1O[C@@H](n2cc/c(=N\O)[nH]c2=O)[C@H](O)[C@@H]1O` [Molnupinavir], the half-maximal effective concentration (EC50) (usually the concentration giving half of the maximal effect) in experiment [1] stood at 60 nM; in experiment [2], 90 nM; in experiment [3], 110 nM.
With `CCN(CC)CCOc1ccc2c(c1)C(=O)c1cc(OCCN(CC)CC)ccc1-2` [Tilorone dihydrochloride], the EC50 was 250 nM in experiment [1] (setting [4]), 930 nM in experiment [2] (setting [5]) and 190 nM in experiment [3] (setting [4]).
For `Cc1c(O)cccc1C(=O)N[C@@H](CSc1ccccc1)[C@H](O)CN1C[C@H]2CCCC[C@H]2C[C@H]1C(=O)NC(C)(C)C` [Nelfinavir mesylate], the half-maximal effective concentration (EC50) in experiment [1] (setting [4]) is 500 nM; in experiment [2] (setting [5]), 1800 nM; in experiment [3] (setting [4]), 110 nM.
